The results in this text go back to patent US20240317756A1, “INHIBITORS OF BRUTON'S TYROSINE KINASE” (Pharmacyclics LLC, priority 2006, published 2024).

The structures appear in SMILES notation. A value given as a limit tells only on which side of the number the result lay.

The target in one data set is BTK (Homo sapiens (Human), UniProt Q06187). The data set is described as follows: in vitro HotSpot kinase assay, BTK. It is filed as biochemical. Particulars: Table 2, 1 uM ATP, one hour incubation with inhibitor.
The target of the next data set is EGFR (Homo sapiens (Human), UniProt P00533). Briefly: in vitro HotSpot kinase assay, EGFR. It is filed as biochemical. Particulars: Table 2, 1 uM ATP, one hour incubation with inhibitor.
The next data set has as its system lymphoma cell line DOHH2. The data set is described as follows: DOHH2 cell proliferation assay (Alamar Blue). Format: cell-based. Here is the method: After 72 hours, cell number was measured using Alamar Blue using manufacturer's protocol. A dilution series of untreated cells was run in parallel to verify that the Alamar Blue assay reliably reflected cell number and that growth conditions were not limiting. […] GI50 values were confirmed in two or more separate experiments for each cell line.
Analogs are generated that are Btk inhibitors and that are cytotoxic to the lymphoma cell line DOHH2. For the DOHH2 cell proliferation assay, cells were seeded in 96-well plates in standard growth media (RPMI+10% fetal calf serum) and compounds were added in a 9-point dilution series ranging from 10 uM to 0.04 uM with DMSO at 0.1% final concentration in all wells. After 72 hours, cell number was measured using Alamar Blue using manufacturer's protocol. A dilution series of untreated cells was run in parallel to verify that the Alamar Blue assay reliably reflected cell number and that growth conditions were not limiting.
A general note: Resazurin is reduced to fluorescent resorufin, in cell work by metabolically active cells.

The test system of data set [1] is Tec family kinases, including Btk, and Src family kinases. The data set is described as follows: in vitro profiling against a panel of greater than 100 kinases. It is filed as biochemical. From the text: By way of example only and in some embodiments, the observed potency, selectivity, and cell permeability of compounds such as Compound 2 are appropriate to incorporate these molecules into a Kinase-targeted, activity based probe that allows direct visualization of Kinase activity in intact cells. […] Without limiting the scope of the compositions and methods described herein, it is postulated that the structural basis for the selectivity is covalent modification of a non-catalytic cysteine residue (Cys 481 in Btk) that is conserved in the ATP binding pocket of the Tec family and several other kinases.

Data set [2] has as its system pERK and BCR pathway phosphorylation in DOHH2 cells. Briefly: BCR signal transduction pathway phosphorylation, DOHH2. It is filed as cell-based. The note with it: unstimulated DOHH2 cells; read-out: IC50 for decrease of pERK levels. From the text: To identify biomarkers that correlate with response to Compound 1, phosphorylation events in the BCR signal transduction pathway were investigated.
However, when we examined basal phosphorylation levels, we found higher basal phosphorylation in DOHH2 compared to Ramos, with phospho-ERK in particular indicating higher levels of basal or tonic signaling in DOHH2.

A further data set has as its system Egr-1. The data set is described as follows: expression of ERK transcriptional target Egr-1. It is filed as cell-based. The note with it: 1 uM.
Data set [3] relates to lymphoma cell line WSU-DLCL2. Briefly: BCR cross-linking by anti-IgG in WSU-DLCL2. The note with it: WSU-DLCL2, anti-IgG 30 ug/ml. It is filed as cell-based.
The next data set concerns the target ITK (Homo sapiens (Human), UniProt Q08881). The data set is described as follows: in vitro HotSpot kinase assay, ITK. It is filed as biochemical. The note with it: Table 2, 1 uM ATP, one hour incubation with inhibitor.
The target of a further data set is LCK (Homo sapiens (Human), UniProt P06239). Briefly: in vitro HotSpot kinase assay, LCK. It is filed as biochemical. The note with it: Table 2, 1 uM ATP, one hour incubation with inhibitor.
The next data set has as its target JAK3 (Homo sapiens (Human), UniProt P52333). Briefly: in vitro HotSpot kinase assay, JAK3. It is filed as biochemical. The note with it: Table 2, 1 uM ATP, one hour incubation with inhibitor.
Data set [4] can be described thus: glutathione binding assay. Particulars: 5 mM glutathione, 10 μM Btk inhibitor, room temperature, HPLC. Here is the method: A calculated value (e.g (1/Btk IC50)/Glutathione conjugation rate) as shown in the Table 2) is used to compare compounds for their ratio between potency at inhibiting their target and their non-specific binding to other SH groups, such as those in glutathione. […] Calculated ratios such as these are used to quantitatively compare different compounds and select compounds for further study.
For the glutathione binding assays, 5 mM glutathione, 10 μM Btk inhibitor in DMSO (10 μL) and 6 equivalents of N′N′ Diisopropyl ethyl amine were combined in 1 mL potassium phosphate buffer. The mixture was incubated for 0, 15, 60 minutes at room temperature and the reaction was stopped with 10 equivalents of formic acid. 50 μL of each reaction mixture was injected on HPLC (Mobil Phase A: 0.2% formic acid in water, Mobile Phase B: 0.2% formic acid in acetonitrile, HPLC Column: Metasil Basic 3μ, 150×4.6 mm, 10% B, Gradient: 10% to 90% B, Detection: UV/Vis […]). Rate of reaction was reported as nmole GSH conjugate conversion per minute from the normalized ratio for area under the curve from HPLC chromatograms for both GSH conjugate and the parent.

The nature of data set [5]: plasma concentrations after oral dosing of rats. Format: in vivo. Particulars: single oral dose 8 mg/kg each in combination. Here is the method:
Blood samples were collected at 0.0833 (5 minutes), 0.333 (20 minutes), 1, 3, 6, 9, and 24 hours post-dosing from orally dosed rats.
Male jugular vein cannulated rats were administered a single dose of all test compounds at 8 mg/kg each, in combination by oral gavage. Dose volumes were adjusted based on body weight data collected immediately prior to dosing. Blood samples were collected at 0.0833 (5 minutes), 0.333 (20 minutes), 1, 3, 6, 9, and 24 hours post-dosing from orally dosed rats. The samples were collected into plasma separator Microtainer tubes with anticoagulant (lithium heparin). Plasma samples were prepared by centrifugation (5 min at 5000×g), and at least 100 μL were transferred to storage tubes and stored frozen at −80° C. Plasma samples were thawed and 75 uL aliquots were transferred to centrifuge tubes to which 10 μL aliquots of internal standard solution (1 μg/mL) were added. The samples were not diluted with blank plasma prior to further processing. Soluble proteins were precipitated by the addition of 200 μL of acetonitrile, followed by centrifugation (20 min at 16,000×g). The samples were evaporated to dryness and reconstituted in 200 μL of water containing 0.2% formic acid and 10% methanol. All samples were loaded onto an autosampler maintained at 6° C. and evaluated for concentrations of test compounds using LC-MS/MS.

For another data set, the target named is TEC (Homo sapiens (Human), UniProt P42680). Briefly: in vitro HotSpot kinase assay, TEC. Format: biochemical. The note with it: purified enzymes, 33P-ATP, 1 uM ATP.
The next data set has as its target HER2 (Homo sapiens (Human), UniProt P04626). The data set is described as follows: in vitro HotSpot kinase assay, HER2. It is filed as biochemical. Particulars: purified enzymes, 33P-ATP, 1 uM ATP.
The target in the next data set is HER4 (Homo sapiens (Human), UniProt Q15303). The data set is described as follows: in vitro HotSpot kinase assay, HER4. It is filed as biochemical. Particulars: purified enzymes, 33P-ATP, 1 uM ATP. From the text: (§1) Table 1 is a table showing the degree of inhibition of a panel of kinases for two example compounds. […] Thus, subtle modifications in the linker moiety and the Michael acceptor moiety are important for the design of selective ACK inhibitors.

The target in a further data set is BLK (Homo sapiens (Human), UniProt P51451). Briefly: in vitro HotSpot kinase assay, BLK. It is filed as biochemical. Particulars: purified enzymes, 33P-ATP, 1 uM ATP.
For another data set, the target named is C-src (Homo sapiens (Human), UniProt P12931). The data set is described as follows: in vitro HotSpot kinase assay, C-src. It is filed as biochemical. Particulars: purified enzymes, 33P-ATP, 1 uM ATP.
Excerpt: as §1

A further data set addresses FGR (Homo sapiens (Human), UniProt P09769). The data set is described as follows: in vitro HotSpot kinase assay, FGR. The note with it: purified enzymes, 33P-ATP, 1 uM ATP. It is filed as biochemical.
Another data set deals with Fyn (Homo sapiens (Human), UniProt P06241). Briefly: in vitro HotSpot kinase assay, Fyn. Particulars: purified enzymes, 33P-ATP, 1 uM ATP. Format: biochemical.
In another data set the target is Lyn (Homo sapiens (Human), UniProt P07948). The data set is described as follows: in vitro HotSpot kinase assay, Lyn. It is filed as biochemical. The note with it: purified enzymes, 33P-ATP, 1 uM ATP.
A further data set deals with YES (Homo sapiens (Human), UniProt P07947). Briefly: in vitro HotSpot kinase assay, YES. Format: biochemical. Particulars: purified enzymes, 33P-ATP, 1 uM ATP.
The target in another data set is ABL (Homo sapiens (Human), UniProt P00519). The data set is described as follows: in vitro HotSpot kinase assay, ABL. Particulars: purified enzymes, 33P-ATP, 1 uM ATP. It is filed as biochemical.
The target in a further data set is Brk (Homo sapiens (Human), UniProt Q13882). The data set is described as follows: in vitro HotSpot kinase assay, Brk. It is filed as biochemical. The note with it: purified enzymes, 33P-ATP, 1 uM ATP.
The next data set has as its target CSK (Homo sapiens (Human), UniProt P41240). The data set is described as follows: in vitro HotSpot kinase assay, CSK. It is filed as biochemical. The note with it: purified enzymes, 33P-ATP, 1 uM ATP.
A further data set concerns the target FER (Homo sapiens (Human), UniProt P16591). The data set is described as follows: in vitro HotSpot kinase assay, FER. Format: biochemical. Particulars: purified enzymes, 33P-ATP, 1 uM ATP.
The target of the next data set is SYK (Homo sapiens (Human), UniProt P43405). Briefly: in vitro HotSpot kinase assay, SYK. Particulars: purified enzymes, 33P-ATP, 1 uM ATP. It is filed as biochemical.
Excerpt: as §1

For data set [6], the system named is collagen-induced arthritis. The data set is described as follows: collagen-induced arthritis in the mouse. Format: in vivo, Male DBA/lOlaHsd mice. Particulars: 12.5 mg/kg or 50 mg/kg each day of an 11-day period. Here is the method:
[…]. […] Dexamethasone was included as a positive control. Paw inflammation was scored from 0-5 and averaged across all paws from all animals for each group in the study.
. After paw inflammation was established, animals were randomized and Compound lor vehicle was dosed orally once per day starting at day 1. Paw inflammation was scored from 0-5 and averaged across all paws from all animals for each group in the study. […] Dexamethasone was included as a positive control.

Chain of EGFR (P00533 25-1210, species assumed): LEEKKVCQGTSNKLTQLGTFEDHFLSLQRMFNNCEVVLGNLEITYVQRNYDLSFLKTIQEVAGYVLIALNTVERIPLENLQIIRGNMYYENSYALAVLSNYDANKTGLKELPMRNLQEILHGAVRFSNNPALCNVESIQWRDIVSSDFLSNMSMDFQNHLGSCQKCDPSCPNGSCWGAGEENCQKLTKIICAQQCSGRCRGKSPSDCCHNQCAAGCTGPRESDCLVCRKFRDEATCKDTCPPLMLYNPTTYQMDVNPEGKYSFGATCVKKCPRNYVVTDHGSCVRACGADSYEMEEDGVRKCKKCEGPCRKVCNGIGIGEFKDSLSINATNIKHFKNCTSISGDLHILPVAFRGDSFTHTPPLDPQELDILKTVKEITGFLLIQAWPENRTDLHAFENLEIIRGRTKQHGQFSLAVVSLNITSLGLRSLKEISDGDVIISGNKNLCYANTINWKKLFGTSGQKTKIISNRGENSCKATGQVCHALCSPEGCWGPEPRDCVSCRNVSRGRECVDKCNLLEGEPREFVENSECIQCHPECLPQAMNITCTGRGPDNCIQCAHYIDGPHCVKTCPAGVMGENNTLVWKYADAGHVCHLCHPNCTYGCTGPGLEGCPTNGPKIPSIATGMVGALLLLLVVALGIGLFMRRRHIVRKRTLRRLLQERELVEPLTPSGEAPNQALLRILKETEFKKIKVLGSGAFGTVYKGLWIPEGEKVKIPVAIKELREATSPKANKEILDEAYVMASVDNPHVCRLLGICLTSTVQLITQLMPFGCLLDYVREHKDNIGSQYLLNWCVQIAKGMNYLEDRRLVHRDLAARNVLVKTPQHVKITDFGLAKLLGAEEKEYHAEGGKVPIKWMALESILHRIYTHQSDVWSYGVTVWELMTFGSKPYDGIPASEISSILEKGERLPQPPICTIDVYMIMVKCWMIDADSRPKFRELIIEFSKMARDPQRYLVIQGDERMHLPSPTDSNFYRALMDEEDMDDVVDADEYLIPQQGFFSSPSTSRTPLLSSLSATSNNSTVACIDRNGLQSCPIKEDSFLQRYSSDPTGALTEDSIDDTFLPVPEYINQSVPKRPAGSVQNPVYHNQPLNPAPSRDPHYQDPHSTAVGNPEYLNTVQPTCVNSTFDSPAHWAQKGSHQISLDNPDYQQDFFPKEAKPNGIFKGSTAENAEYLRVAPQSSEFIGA
Chain of BTK (Q06187 whole entry): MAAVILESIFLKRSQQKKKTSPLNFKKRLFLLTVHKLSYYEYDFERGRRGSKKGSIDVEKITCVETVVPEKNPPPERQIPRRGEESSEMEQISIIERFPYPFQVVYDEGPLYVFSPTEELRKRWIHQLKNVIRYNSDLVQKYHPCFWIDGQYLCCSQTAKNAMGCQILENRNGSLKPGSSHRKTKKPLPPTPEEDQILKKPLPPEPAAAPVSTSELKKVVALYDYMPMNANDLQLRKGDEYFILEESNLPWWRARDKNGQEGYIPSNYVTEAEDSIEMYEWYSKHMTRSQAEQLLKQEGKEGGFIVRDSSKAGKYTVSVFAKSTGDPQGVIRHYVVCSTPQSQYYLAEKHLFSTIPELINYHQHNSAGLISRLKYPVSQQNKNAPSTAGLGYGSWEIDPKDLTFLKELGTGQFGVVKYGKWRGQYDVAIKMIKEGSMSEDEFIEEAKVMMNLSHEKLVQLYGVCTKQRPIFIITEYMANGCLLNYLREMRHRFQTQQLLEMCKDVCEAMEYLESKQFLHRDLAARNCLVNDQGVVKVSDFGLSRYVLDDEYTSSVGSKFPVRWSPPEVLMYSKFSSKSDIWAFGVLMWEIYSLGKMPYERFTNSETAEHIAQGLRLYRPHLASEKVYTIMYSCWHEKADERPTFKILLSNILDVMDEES
Chain of LCK (P06239 whole entry, species assumed): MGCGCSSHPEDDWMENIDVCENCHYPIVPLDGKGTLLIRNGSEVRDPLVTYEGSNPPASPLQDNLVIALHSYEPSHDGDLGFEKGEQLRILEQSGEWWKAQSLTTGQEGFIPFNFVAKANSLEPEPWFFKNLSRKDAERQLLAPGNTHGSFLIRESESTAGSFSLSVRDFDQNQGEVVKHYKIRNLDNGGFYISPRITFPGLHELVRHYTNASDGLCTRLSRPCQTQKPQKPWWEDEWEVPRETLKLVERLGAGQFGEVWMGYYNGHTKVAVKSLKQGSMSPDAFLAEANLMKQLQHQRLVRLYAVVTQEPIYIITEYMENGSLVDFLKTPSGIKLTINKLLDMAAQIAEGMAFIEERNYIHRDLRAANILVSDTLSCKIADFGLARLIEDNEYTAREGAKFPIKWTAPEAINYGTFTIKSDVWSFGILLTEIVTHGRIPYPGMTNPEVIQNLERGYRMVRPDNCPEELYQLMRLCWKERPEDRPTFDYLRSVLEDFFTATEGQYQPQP
Chain of JAK3 (P52333 whole entry, species assumed): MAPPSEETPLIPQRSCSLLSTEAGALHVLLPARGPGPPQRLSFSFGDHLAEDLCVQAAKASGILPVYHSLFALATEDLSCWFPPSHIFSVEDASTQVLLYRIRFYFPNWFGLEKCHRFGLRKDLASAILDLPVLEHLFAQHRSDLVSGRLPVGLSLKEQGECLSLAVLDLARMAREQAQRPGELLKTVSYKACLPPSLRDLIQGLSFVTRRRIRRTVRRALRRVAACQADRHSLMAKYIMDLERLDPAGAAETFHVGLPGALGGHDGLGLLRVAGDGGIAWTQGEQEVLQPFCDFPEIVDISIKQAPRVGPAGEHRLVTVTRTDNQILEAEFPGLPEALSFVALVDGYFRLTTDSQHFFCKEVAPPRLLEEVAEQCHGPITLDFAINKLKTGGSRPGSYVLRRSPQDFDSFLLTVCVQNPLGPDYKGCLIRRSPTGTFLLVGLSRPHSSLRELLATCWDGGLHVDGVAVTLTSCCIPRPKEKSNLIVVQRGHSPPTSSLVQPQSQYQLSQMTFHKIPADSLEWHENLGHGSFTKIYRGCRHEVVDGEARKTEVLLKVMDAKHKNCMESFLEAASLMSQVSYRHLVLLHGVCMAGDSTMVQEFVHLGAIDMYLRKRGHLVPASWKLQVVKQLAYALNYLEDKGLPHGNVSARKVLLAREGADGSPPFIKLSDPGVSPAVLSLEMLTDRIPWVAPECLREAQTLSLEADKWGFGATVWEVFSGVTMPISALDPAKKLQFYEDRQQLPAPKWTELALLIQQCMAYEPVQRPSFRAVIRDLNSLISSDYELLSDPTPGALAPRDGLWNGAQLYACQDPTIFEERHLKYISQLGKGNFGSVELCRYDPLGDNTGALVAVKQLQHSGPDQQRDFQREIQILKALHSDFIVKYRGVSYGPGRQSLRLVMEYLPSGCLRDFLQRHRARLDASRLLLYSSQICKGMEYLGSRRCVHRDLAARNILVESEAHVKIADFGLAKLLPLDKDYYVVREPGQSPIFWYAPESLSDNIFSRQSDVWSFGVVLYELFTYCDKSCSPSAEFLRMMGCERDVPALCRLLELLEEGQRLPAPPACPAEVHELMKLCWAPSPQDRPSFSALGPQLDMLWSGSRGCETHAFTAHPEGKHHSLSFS
Chain of ITK (Q08881 whole entry, species assumed): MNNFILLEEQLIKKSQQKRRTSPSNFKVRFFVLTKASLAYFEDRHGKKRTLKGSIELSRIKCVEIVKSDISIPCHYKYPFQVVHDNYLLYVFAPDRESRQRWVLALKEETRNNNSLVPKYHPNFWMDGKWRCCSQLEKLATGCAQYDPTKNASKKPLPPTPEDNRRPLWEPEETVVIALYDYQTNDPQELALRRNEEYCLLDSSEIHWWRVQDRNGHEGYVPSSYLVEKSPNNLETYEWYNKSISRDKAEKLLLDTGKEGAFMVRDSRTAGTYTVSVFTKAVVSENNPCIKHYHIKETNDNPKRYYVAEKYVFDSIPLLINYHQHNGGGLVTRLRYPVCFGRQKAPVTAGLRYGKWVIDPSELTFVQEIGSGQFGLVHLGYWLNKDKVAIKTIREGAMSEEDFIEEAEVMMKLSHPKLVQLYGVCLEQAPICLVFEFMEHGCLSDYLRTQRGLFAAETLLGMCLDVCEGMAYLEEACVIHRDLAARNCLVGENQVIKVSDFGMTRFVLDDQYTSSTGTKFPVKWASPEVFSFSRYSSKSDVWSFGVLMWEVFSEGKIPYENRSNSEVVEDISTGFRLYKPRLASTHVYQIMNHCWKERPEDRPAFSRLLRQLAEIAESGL
Chain of BLK (P51451 whole entry, species assumed): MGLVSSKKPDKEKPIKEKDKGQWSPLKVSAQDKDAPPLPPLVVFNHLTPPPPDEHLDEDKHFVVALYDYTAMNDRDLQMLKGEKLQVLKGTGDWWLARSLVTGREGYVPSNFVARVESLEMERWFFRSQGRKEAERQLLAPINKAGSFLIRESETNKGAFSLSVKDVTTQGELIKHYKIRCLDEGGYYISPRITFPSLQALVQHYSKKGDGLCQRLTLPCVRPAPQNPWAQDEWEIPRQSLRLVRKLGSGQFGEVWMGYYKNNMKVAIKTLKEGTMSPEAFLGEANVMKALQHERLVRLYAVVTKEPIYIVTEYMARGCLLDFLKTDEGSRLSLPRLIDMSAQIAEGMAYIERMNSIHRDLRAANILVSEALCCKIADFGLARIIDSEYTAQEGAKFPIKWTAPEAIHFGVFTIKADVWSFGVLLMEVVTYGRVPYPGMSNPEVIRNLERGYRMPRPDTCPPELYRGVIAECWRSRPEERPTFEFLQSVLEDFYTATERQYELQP
Chain of Brk (Q13882 whole entry, species assumed): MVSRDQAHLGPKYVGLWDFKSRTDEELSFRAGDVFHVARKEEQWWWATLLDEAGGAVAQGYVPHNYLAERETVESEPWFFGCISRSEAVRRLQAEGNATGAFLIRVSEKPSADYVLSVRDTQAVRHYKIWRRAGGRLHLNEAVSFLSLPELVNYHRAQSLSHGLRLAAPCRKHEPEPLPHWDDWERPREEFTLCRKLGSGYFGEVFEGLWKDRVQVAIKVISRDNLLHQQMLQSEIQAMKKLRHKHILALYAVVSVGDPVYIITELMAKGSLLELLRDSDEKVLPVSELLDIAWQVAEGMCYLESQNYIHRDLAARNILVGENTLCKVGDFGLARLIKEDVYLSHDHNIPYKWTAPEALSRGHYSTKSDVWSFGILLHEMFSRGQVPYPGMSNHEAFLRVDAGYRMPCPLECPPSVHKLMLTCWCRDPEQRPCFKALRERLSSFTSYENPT

In the case of `CN(C)C/C=C/C(=O)N1CCC[C@@H](n2nc(-c3ccc(Oc4ccccc4)cc3)c3c(N)ncnc32)C1` [Compound 2], the IC50 (usually the concentration that inhibits the measured activity by half) on BTK was 1.1 nM; against EGFR, 48.8 nM. For the same compound, in the data set with lymphoma cell line DOHH2 (72 hours), the GI50 (in general, the concentration that inhibits growth by half) was determined as 320 nM. Moreover, the “potency and selectivity in kinase panel” value in [1] is “highly potent and selective inhibitor”.
Regarding `Nc1ncnc2c1c(-c1ccc(Oc3ccccc3)cc1)nn2[C@@H]1CCCCN1C(=O)/C=C/c1c[nH]cn1` [Compound 4], the IC50 is 22.2 nM against BTK and less than 10 nM in [2]. Besides, the “time to reduced Egr-1 expression” value in the data set on Egr-1 was no more than 1 h. For the same compound, the “maximal downregulation of Egr-1 expression” value in the data set with Egr-1 (achieved by 4 hr) was found to be 10 fold. The “inhibition of pERK under BCR cross-linking” value in data set [3] is on record as “overcomes inhibition of pERK”.
On to `CN(C)C/C=C/C(=O)N1CCC(n2nc(-c3ccc(Oc4ccccc4)cc3)c3c(N)ncnc32)CC1` [Compound 7, (E)-1-(4-(4-amino-3-(4-phenoxyphenyl)-1H-pyrazolo[3,4-d]pyrimidin-1-yl)piperidin-1-yl)-4-(dimethylamino)but-2-en-1-one], for which the IC50 against BTK was 6.3 nM; against ITK it was 6120 nM; against EGFR, 269 nM; at LCK, 2.6 nM; at JAK3, greater than 10000 nM. Moreover, the “Glutathione Conj Rate” value in data set [4] is on record as 0.01 nmol/min. Also, in the data set on lymphoma cell line DOHH2 (Homo sapiens, DOHH-2, 72 hours), growth was halved (GI50) at 317 nM. Further, in [5], the in vivo half-life result was “significantly longer in vivo half-life”.
As for `CN(C)C/C=C/C(=O)N[C@H]1CC[C@@H](n2nc(-c3ccc(Oc4ccccc4)cc3)c3c(N)ncnc32)CC1` [Compound 8, (E)-N-((1s,4s)-4-(4-amino-3-(4-phenoxyphenyl)-1H-pyrazolo[3,4-d]pyrimidin-1-yl)cyclohexyl)-4-(dimethylamino)but-2-enamide], the IC50 against BTK was found to be 1.4 nM; on EGFR it was 83.4 nM. Moreover, the in vivo half-life entry in data set [5] is reported as “significantly longer in vivo half-life”.
Take `C=CC(=O)N[C@H]1CC[C@@H](n2nc(-c3ccc(Oc4ccccc4)cc3)c3c(N)ncnc32)CC1` [Compound 9]: the IC50 was found to be 108 nM against TEC; 1540 nM against HER2; 3.2 nM at HER4; 0.2 nM at BLK; 14.3 nM against C-src; 0.4 nM against FGR. For the same compound, the IC50 against Fyn is 7.1 nM; on Lyn, 1.2 nM; at YES, 0.8 nM; at ABL it was 32.3 nM; at Brk it was 3.3 nM; against CSK, 2.4 nM. The IC50 against FER was 3350 nM; against SYK it was greater than 10000 nM. The same compound registered a GI50 in the data set on lymphoma cell line DOHH2 (72 hours) of 11 nM. Moreover, the paw inflammation entry in data set [6] was “reduced the increase in paw inflammation”.
`CN(C)C/C=C/C(=O)N1CCC[C@H]1Cn1nc(-c2ccc(Oc3ccccc3)cc2)c2c(N)ncnc21` [Compound 12, (E)-1-((S)-2-((4-amino-3-(4-phenoxyphenyl)-1H-pyrazolo[3,4-d]pyrimidin-1-yl)methyl)pyrolidin-1-yl)-4-(dimethylamino)but-2-en-1-one]: the IC50 against BTK was 1.33 nM; at ITK, 14300 nM; against EGFR, 698 nM; against LCK it was 5.97 nM; on JAK3 it was greater than 10000 nM. The “Glutathione Conj Rate” value in data set [4] was determined as 0.004361 nmol/min. The compound further had a GI50 with lymphoma cell line DOHH2 (72 hours) greater than 10000 nM. Further, the in vivo half-life entry in [5] was “short half-life in vivo”.
